Key:
[1] = tested on: human embryonic kidney HEK293 cell line; experiment: MTT cell viability assay, HEK293; format: cell-based
Protocol: (§1) The human colorectal carcinoma HCT-116 cell line, human pancreatic ductal adenocarcinoma PANC-1 cell line, human melanoma A375 cell line and human embryonic kidney HEK293 cell line were purchased from the American Type Culture Collection. Cells were cultured in high glucose DMEM growth medium supplemented with 10% fetal bovine serum, penicillin and streptomycin (100 U) in a humidified atmosphere of 5% CO2, 95% air at 37° C. Upon the addition of dihydro-resveratrol (D-res) to the HCT-116, PANC-1, A375 or HEK293 cells seeded at a density of 8000 cells per well in a 96-well plate format, the viability of the testing cells was determined 24 h post treatment using the (3-(4,5-dimethylthiazol-2-yl)-2,5-diphenyltetrazolium bromide) tetrazolium (MTT) reduction assay and expressed as growth inhibition of 50% (GI50, Table 6).

[2] = tested on: human colorectal carcinoma HCT-116 cell line; experiment: MTT cell viability assay, HCT-116; format: cell-based; conditions: HCT-116 colorectal carcinoma, 24 h
Protocol: as §1

[3] = tested on: skin color at the arms of individual human subjects; experiment: skin colorimeter ITA° measurement after topical stilbenoid solution; format: in vivo
Protocol: To determine the skin color of the individual human subjects, the initial skin conditions at the arms of the individuals are tested by the skin colorimeter MPA 5 on day 0. The individual typology angle (ITA°) is calculated by the colorimeter based on the luminance (L*) and yellow-blue component (b*) values. The greater the ITA° value, the greater the skin whiteness [S. Del Bino and F. Bernerd. Variations in skin colour and the biological consequences of ultraviolet radiation exposure. British Journal of Dermatology 2013; 169 (Suppl. 3), 33-40]. In fact, skin colors are classified into 6 major divisions: very light, light, intermediate, tan, brown and dark as listed in Table 4. Two areas (2 cm×2 cm each) are selected as treated areas whereas regions surrounding the treated areas on the arms are regarded as control areas. A volume of 200 μL of the testing stilbenoids (2% by weight dissolved in ethanol) is applied to the designated area twice a day, day and night. At the end of the first week (day 7), individuals are tested with the skin colorimeter for recording the data about using the stilbenoids for 7 days. Again, at the end of the second week (day 14), individuals are tested with the skin colorimeter for recording the data about using the stilbenoids for 14 days.

Streptococcus sobrinus = experiment: anti-bacterial growth inhibition, S. sobrinus; format: cell-based; conditions: Streptococcus sobrinus, 10 h
Protocol: Evaluation of anti-bacterial activity. In a single well of the 96-well microplate, 10 μL of the testing compound is added into 190 μL of growth medium growth medium (BBL™ Brain Heart Infusion) containing an overnight culture of Streptococcus mutans or Streptococcus sobrinus at a density of approximately 5×10^5 CFU. The testing compounds include dihydro-resveratrol and DR1 to DR11. Wells incubated with 10 μL 0.5% DMSO only (i.e. no testing compound) are served as the experimental control of bacterial growth whilst those incubated with growth medium only (i.e. no bacteria) are served as the negative control. […] The percentage of growth inhibition of S. mutans by the different concentrations of testing compounds is shown in Table 12 whereas the percentage of growth inhibition of S. sobrinus is shown in Table 13. The images of S. mutans culture are captured post treatment of dihydro-resveratrol (100 μM) and DR8 (100 μM) when compared to the growth of experimental control and negative control (FIG. 31).

[4] = tested on: cerulein-induced chronic pancreatitis; experiment: cerulein-induced chronic pancreatitis in mice, oral treatment; format: in vivo, C57/BL6 mice
Protocol: Evaluation of biological activities. C57/BL6 mice aged 28 days weighing in the range of 20 to 25 g were randomly assigned into 4 groups of 6 to 8 individuals. The mice were housed with an ambient temperature of 23±2° C., a relative humidity of 60 to 80% and a 12-h light/dark cycle. Prior to the glucose tolerance test, the mice were starved overnight but allowed with free access to water. Experimental chronic pancreatitis was induced in the mice by four hourly i.p. injections of cerulein at the supramaximally stimulating dose (50 μg/kg) a day, 3 days a week, in a total of 6 weeks. The control group received injections of 0.9% saline instead of cerulein in the same volume and at same time intervals. The treatment groups given with cerulein and oral doses of dihydro-resveratrol (20 mg/kg/day) were designated as Cer+D-res. […] Thus, it concludes that an effective dosage of dihydro-resveratrol is at least 20 mg/kg/day. […] At the end of the 6-week experiment, mice were subjected to the intraperitoneal glucose tolerance test (IPGTT). Mice had been starved for 14 hours prior to the IPGTT, in which a 15% (w/v) glucose solution was injected to individual animals at 1.5 g glucose per kg body weight. About 1 μL of blood will be obtained from the tail vein, and blood glucose levels were monitored 30 min before (i.e. fasting level) and 10, 20, 30 and 60 min after glucose injection using a glucometer (Medisign, Korea). Upon scarification, pancreases were immediately removed, weighed, trimmed from fat and fixed in 4% paraformaldehyde-phosphate buffered saline overnight at 4° C. Samples were then processed, embedded in paraffin wax, sectioned and subjected to immunostaining.

[5] = ABTS radical decolorization assay (antioxidant capacity); format: biochemical; conditions: 15 min, 734 nm

Oc1ccc(CCc2cc(O)cc(O)c2)cc1 [Dihydro-resveratrol, trans-3,5,4′-trihydroxybibenzyl]
GI50 ([1]; Homo sapiens, HEK293 embryonic kidney (serves as normal control), 24 h, MTT): 244.1 ± 0.96 µM
selectivity implied by GI50 values (carcinoma cells vs HEK293) ([1]; Table 6): selectivity towards carcinoma cells
GI50 [2]: 102 ± 5.21 µM
whitening effect on skin ([3]; 2% by weight in ethanol, topical twice a day, most individuals): Overt whitening effect
ITA° measurement ([3]; Individual No. 1, day 7, 2% solution topical): 49.0 ± 1.732 °
ITA° measurement ([3]; Individual No. 1, day 14, 2% solution topical): 52.4 ± 1.166 °
ITA° measurement ([3]; Individual No. 2, day 7, 2% solution topical): 41.1 ± 3.391 °
ITA° measurement ([3]; Individual No. 2, day 14, 2% solution topical): 49.8 ± 4.630 °
ITA° measurement ([3]; Individual No. 3, day 7, 2% solution topical): 35.0 ± 1.000 °
ITA° measurement ([3]; Individual No. 3, day 14, 2% solution topical): 33.8 ± 0.837 °
ITA° measurement ([3]; Individual No. 4, day 7, 2% solution topical): 26.8 ± 2.371 °
ITA° measurement ([3]; Individual No. 4, day 14, 2% solution topical): 35.2 ± 2.103 °
ITA° measurement ([3]; Individual No. 5, day 7, 2% solution topical): 25.6 ± 1.817 °
ITA° measurement ([3]; Individual No. 5, day 14, 2% solution topical): 27.8 ± 1.934 °
ITA° measurement ([3]; Individual No. 6, day 7, 2% solution topical): 26.4 ± 2.649 °
ITA° measurement ([3]; Individual No. 6, day 14, 2% solution topical): 34.6 ± 0.927 °
ITA° measurement ([3]; Individual No. 7, day 7, 2% solution topical): 21.2 ± 0.837 °
ITA° measurement ([3]; Individual No. 7, day 14, 2% solution topical): 23.8 ± 2.634 °
ITA° measurement ([3]; Individual No. 8, day 7, 2% solution topical): 14.0 ± 2.345 °
ITA° measurement ([3]; Individual No. 8, day 14, 2% solution topical): 16.2 ± 1.483 °
ITA° measurement ([3]; Individual No. 9, day 7, 2% solution topical): −5.2 ± 0.837 °
ITA° measurement ([3]; Individual No. 9, day 14, 2% solution topical): −2.2 ± 0.447 °
inhibition at 25 µM (Streptococcus sobrinus; read-out: Inhibition rate (25 μM)): 10.7%
inhibition at 50 µM (Streptococcus sobrinus; read-out: Inhibition rate (50 μM)): 8.18%
inhibition at 100 µM (Streptococcus sobrinus; read-out: Inhibition rate (100 μM)): 1.49%
fibrosis formation, 50 mg/kg/day versus 20 mg/kg/day [4]: no statistically significant difference
pancreatic beta-cell area (insulin immunofluorescence) ([4]; 20 mg/kg/day oral): restoration of beta-cell area
FN1 deposition in pancreatic parenchyma ([4]; 20 mg/kg/day oral, 3 weeks): reduces such deposition
impaired glucose tolerance (IPGTT) ([4]; 20 mg/kg/day oral, 3 weeks): significantly rectified
adverse effect ([4]; 50 mg/kg/day): no adverse effect
Trolox equivalent (mg), antioxidant capacity [5]: 4969.611 mg
